Results taken from patent US20250304623A1, “PEPTIDES FOR INTRACELLULAR DELIVERY” (UNIVERSIDADE DE SANTIAGO DE COMPOSTELA, priority 2022, published 2025).
Starred links: 1 amine or outer side, 2 acyl side, 3 side chain; linkers in the order of their positions; H or OH if unused. Residues, ends and D or L forms follow the SMILES beside them. Groups on a side chain read outwards from the residue. *: point of attachment. Glutaryl = O=C(CCCC(=O)[*:2])[*:1]; NHNH2 = NN*

Key:
Assay type in all cases: cell-based
[1] = tested on: ARPE19 cells; experiment: RLuc pDNA delivery, robotic library screening, ARPE19
[2] = tested on: HCT116 cells; experiment: EGFP mRNA delivery, robotic library screening, HCT116
Method: Cells were seeded in a 96 well plate the day before the experiment at a concentration of 50,000 cell/mL (100 μL/w) in DMEM+10% FBS+1% Gln-Abt. For robotic library screening, the delivery of EGFP-mRNA (from TriLink, fully substituted with 5-methoxyuridine, capped and polyadenylated; TriLink, CleanCap® EGFP mRNA (5moU), ref. L-7201) in six different cell lines was performed. Amphiphilic molecule stock solutions were prepared in DMSO as described above and diluted in DMEM to afford a range of concentrations. The solutions of EGFP-mRNA/amphiphilic molecule complexes were freshly prepared prior to the transfection experiments. 35 μL of the corresponding amphiphile were added to 10 μL of a solution of EGFP-mRNA at 10 ng/μL in DMEM. The mixture was shaken for 30 min at room temperature before the addition to the cells. The cell medium was aspirated, and cells were washed with PBS twice. Cells were covered with 39 μL of DMEM and 11 μL of the complex's solution were added to the cells and incubated for 4 h (final concentration of peptide=2.5, 5 and 10 μM; final concentration of EGFP-mRNA=25 ng/well). After the incubation, the medium was replaced by 100 μL of fresh DMEM supplemented with 10% FBS. The total EGFP fluorescence was quantified after 72 h in a well plate reader. Amphiphile transfection efficiency was compared and normalized to Lipofectamine® MessengerMax efficiency (value of 1 in Tables 1-5 and 7; double underlined numbers). All experiments were done in triplicate.
(§1) Tables 1-7: RLuc (pDNA) or EGFP (mRNA) expression levels were normalized to Lipofectamine reagents (value=1) and expressed as fold-times signal increase. In the case of siRNA, the siRNA treated cells fluorescence was compared with siMOCK control fluorescence, while Cas9-RNP mediated knockout was measured against the fluorescence of untreated cells. In both siRNA and Cas9-RNP, values are expressed as % fluorescence reduction. Amphiphile concentration was 5 μM in all cases. All experiments were performed in triplicate.
Tables 14-19 show the mean (triplicates) fluorescence intensity measured after the transfection of EGFP mRNA by different amphiphiles at different concentrations in a variety of cell lines. Background fluorescence values, accounted by untreated control cells, were subtracted for processing.

[3] = tested on: Hela cells expressing EGFP; experiment: Cas9-RNP delivery against EGFP (gene editing, plate reader), HeLa
Method: To generate an EGFP expressing HeLa cell line, HeLa cells were transfected with EGFP pDNA (pEGFP-C1, Clontech) and stable transfectants were selected with 400 μg/mL of G-418 (Millipore). Green clones were selected by epifluorescence microscopy and tested for EGFP expression stability through several passages. […] All other EGFP-expressing cell lines were obtained in a similar way from parent non-EGFP-expressing cell lines.
Cells expressing EGFP were seeded in a 96 well plate the day before the experiment at a concentration of 50,000 cell/mL (100 μL/w) in DMEM+10% FBS+1% Gln-Abt. For robotic library screening, the delivery of Cas9-RNP against EGFP (RNP designed to knock-out the gene encoding for the enhanced green fluorescent protein (EGFP)) was performed. For RNP assembly, 9.2 μL of crRNA and 9.2 μL of tracrRNA were mixed in 211.6 μL of Nuclease-Free Duplex Buffer (IDT), incubated for 5 min at 95° C. and slowly cooled at rt (see I. Lostalé-Seijo, et al. Peptide/Cas9 nanostructures for ribonucleoprotein cell membrane transport and gene edition, Chem. Sci., 2017). Cas9 protein was dissolved in DMEM at a final concentration of 4 μM and equal volumes of the RNA complex and Cas9 were mixed and incubated for 5 min at rt. 75 μL of the corresponding amphiphile concentrations were added to 5 μL of RNP at 2 μM. The mixture was shaken for 30 min at room temperature before the addition to the cells. The cell medium was aspirated, and cells were washed twice with PBS. Cells were covered with 30 μL of DMEM and 20 μL of the RNP/amphiphile complexes were added to the cells (final peptide concentrations=2.5, 5 and 10 μM; final Cas9-RNP concentration=50 nM) and incubated for 4 h. After the incubation, the medium was replaced by 100 μL of fresh DMEM supplemented with 10% FBS. The total EGFP fluorescence was quantified after 72 h in a plate reader (FIG. 2, Table 1 (right) and Table 6). All experiments were done in triplicate.
as §1
Tables 26-31 show the mean (triplicates) percentage of gene editing, accounted by GFP fluorescence intensity decrease (% of reduction), measured after the transfection of Cas9-RNP by different amphiphiles at different concentrations in a variety of cell lines. Background values, accounted by untreated control cells, were subtracted for processing.

Compound	mean luminescent intensity (RLuc pDNA) ([1]; Myristoleyl, 5 μM)	mean luminescent intensity (RLuc pDNA) ([1]; Myristoleyl, 10 μM)	mean luminescent intensity (RLuc pDNA) ([1]; Myristoleyl, 15 μM)	mean luminescent intensity (RLuc pDNA) ([1]; Palmitoleyl, 5 μM)	mean luminescent intensity (RLuc pDNA) ([1]; Palmitoleyl, 10 μM)	mean luminescent intensity (RLuc pDNA) ([1]; Petroselinyl, 5 μM)	mean luminescent intensity (RLuc pDNA) ([1]; Petroselinyl, 10 μM)	mean luminescent intensity (RLuc pDNA) ([1]; Petroselinyl, 15 μM)	mean fluorescence intensity (EGFP mRNA) ([2]; Petroselinyl, 2.5 μM)	mean fluorescence intensity (EGFP mRNA) ([2]; Petroselinyl, 5 μM)	mean fluorescence intensity (EGFP mRNA) ([2]; Petroselinyl, 10 μM)	percentage of gene editing, GFP fluorescence intensity decrease (% of reduction) ([3]; Myristoleyl, 5 μM, HeLa cells)	other results
CC(=O)N[C@@H](CCCNC(=N)N)C(=O)N[C@@H](CCCCNC(=O)CCCC(=O)NN)C(=O)N[C@@H](Cc1c[nH]cn1)C(=O)N[C@@H](CCCNC(=N)N)C(=O)N[C@@H](CCCCNC(=O)CCCC(=O)NN)C(=O)N[C@@H](CCCCNC(=O)CCCC(=O)NN)C(=O)N[C@@H](Cc1c[nH]cn1)C(N)=O [7.3(L-H), Ac-RK*HRK*K*H-NH2] (Ac-RK([Glutaryl-NHNH2])HRK([Glutaryl-NHNH2])K([Glutaryl-NHNH2])H-NH2)	34050 RLU	40509 RLU	13457 RLU	111815 RLU	92487 RLU	79286 RLU	77882 RLU	15465 RLU	5653	19656	9118	39%	mean luminescent intensity (RLuc pDNA) ([1]; Palmitoleyl, 15 μM): 55716 RLU; pDNA delivery, times better than Lipofectamine 2000 ([1]; palmitoleyl aldehyde): 10 times; pDNA delivery, times better than Lipofectamine 2000 ([1]; petroselinyl aldehyde): 7 times; mean fluorescence intensity (EGFP mRNA) ([2]; Myristoleyl, 2.5 μM): 76926; mean fluorescence intensity (EGFP mRNA) ([2]; Myristoleyl, 5 μM): 19128; mean fluorescence intensity (EGFP mRNA) ([2]; Palmitoleyl, 2.5 μM): 32455; mean fluorescence intensity (EGFP mRNA) ([2]; Palmitoleyl, 5 μM): 26406; mean fluorescence intensity (EGFP mRNA) ([2]; Palmitoleyl, 10 μM): 6504; percentage of gene editing, GFP fluorescence intensity decrease (% of reduction) ([3]; Dodecanal, 10 μM, HeLa cells): −8%; percentage of gene editing, GFP fluorescence intensity decrease (% of reduction) ([3]; Dodecanal, 15 μM, Hela cells): −21%; percentage of gene editing, GFP fluorescence intensity decrease (% of reduction) ([3]; Myristoleyl, 10 μM, HeLa cells): 22%; percentage of gene editing, GFP fluorescence intensity decrease (% of reduction) ([3]; Myristoleyl, 15 μM, Hela cells): 18%; percentage of gene editing, GFP fluorescence intensity decrease (% of reduction) ([3]; Oleyl, 5 μM, HeLa cells): 16%; percentage of gene editing, GFP fluorescence intensity decrease (% of reduction) ([3]; Oleyl, 10 μM, HeLa cells): 13%; percentage of gene editing, GFP fluorescence intensity decrease (% of reduction) ([3]; Oleyl, 15 μM, Hela cells): 22%; percentage of gene editing, GFP fluorescence intensity decrease (% of reduction) ([3]; Palmitoleyl, 5 μM, HeLa cells): 55%; percentage of gene editing, GFP fluorescence intensity decrease (% of reduction) ([3]; Palmitoleyl, 10 μM, HeLa cells): 28%; percentage of gene editing, GFP fluorescence intensity decrease (% of reduction) ([3]; Palmitoleyl, 15 μM, Hela cells): 17%; percentage of gene editing, GFP fluorescence intensity decrease (% of reduction) ([3]; Petroselinyl, 5 μM, HeLa cells): 46%; percentage of gene editing, GFP fluorescence intensity decrease (% of reduction) ([3]; Petroselinyl, 10 μM, Hela cells): 14%
Ac-RHLK*RHK*RRLK*RH-NH2 (Ac-RHLKRHKRRLKRH-NH2; not fully specified (residues 4, 7, 11); printed as Ac-RHLK*RHK*RRLK*RH-NH2; also: linker on K* not given here) [13(3His)]	32411 RLU	1998 RLU	28 RLU	40629 RLU	6400 RLU	33797 RLU	10940 RLU	3792 RLU	563	238	541	18%	mean luminescent intensity (RLuc pDNA) ([1]; Dodecanal, 5 μM): 11495 RLU; mean luminescent intensity (RLuc pDNA) ([1]; Dodecanal, 10 μM): 366 RLU; mean luminescent intensity (RLuc pDNA) ([1]; Oleyl, 5 μM): 6754 RLU
